In US5648458A, “Peptides and compounds that bind to ELAM-1” (Affymax Technologies N.V., priority 1995, dated 1997):
Ends that are not written are not given here.

Biological target: T1, immobilized ELAM-1 (Homo sapiens, UniProt P16581)
T1 construct: truncated form comprising the complete extracellular domain (amino acids 1 through 554); made in house
T1 sequence (P16581 22-554): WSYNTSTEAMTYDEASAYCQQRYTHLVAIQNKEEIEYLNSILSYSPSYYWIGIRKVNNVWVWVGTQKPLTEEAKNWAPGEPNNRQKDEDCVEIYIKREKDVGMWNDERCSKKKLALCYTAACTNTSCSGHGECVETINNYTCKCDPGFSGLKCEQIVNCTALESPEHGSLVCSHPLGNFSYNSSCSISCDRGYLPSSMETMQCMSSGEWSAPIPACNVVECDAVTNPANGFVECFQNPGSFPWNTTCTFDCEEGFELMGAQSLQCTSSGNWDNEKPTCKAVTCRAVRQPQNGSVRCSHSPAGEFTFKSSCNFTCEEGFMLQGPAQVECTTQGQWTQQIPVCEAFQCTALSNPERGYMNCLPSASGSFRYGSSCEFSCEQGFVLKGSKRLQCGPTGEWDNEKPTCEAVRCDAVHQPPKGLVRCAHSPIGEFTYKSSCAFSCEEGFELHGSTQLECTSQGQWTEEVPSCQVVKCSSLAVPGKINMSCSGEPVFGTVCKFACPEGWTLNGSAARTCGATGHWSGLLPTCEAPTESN
Assay type: cell-based
Conditions: 200000.0
Description: The assay requires HL60 cells labeled with tritiated thymidine. […] The cells are then placed in a T75 flask and incubated at 37° C. for 24 hours. The cells are then collected by centrifugation, washed twice with RPMI/HEPES/0.1% FCS, and resuspended in the same solution at a concentration of about one to two million cells per mL. About 100 μL of this cell preparation are used per well of a 96-well microtiter dish in the assay. The wells of the microtiter dish were first coated with the anti-receptor immobilizing antibody, an anti-HPAP-tail antibody, using about 2.5 μg of antibody per well. […] Then, the wells were washed three times with RPMI 1640 plus 0.1% FCS using a multichannel pipettor.

Sequence: HITWDQLWNVMN
- blocking of HL60 cell binding, relative to binding in the absence of added compound: over 80%
